# Measured values from US20210393586A1, “Compounds for Use in the Treatment of Bacterial Infections” (Universität Konstanz, priority 2018, published 2021).
# How the values were obtained:
# [1] = test system: quinolone and phenazine production of P. aeruginosa PAO1; experiment: Quinolone and phenazine inhibition in P. aeruginosa PAO1 cultures, LC-MS/MS of supernatants; type: cell-based, Pseudomonas aeruginosa
# Method: (§1) A LC-MS/MS method was established using characteristic mass transitions for quantitative analysis of metabolites in the supernatants of P. aeruginosa (Table 1, FIGS. 13 to 15). A library of phenazines and synthetic AQs and AQNOs served as standards (Szamosvári, D.; Böttcher, T., Angew Chem Int Ed Engl 2017, 56 (25), 7271-7275). There were also analyzed phenazines, including phenazine-1-carboxamide (PHZ-CA), 1-hydroxyphenazine (1-OH-PHZ), and pyocyanin (PYO), which are produced as virulence factors partially under control of the PQS quorum sensing system (FIG. 16a).
# (§2) Ultra-high performance liquid chromatography was performed on a Dionex Ultimate 3000 UHPLC (Thermo Fisher Scientific, Waltham, Mass.) using a Nucleodur C18 Gravity-SB 150×2 mm, 3 μm column (Macherey-Nagel). The flow rate was 0.5 mL/min and the columns temperature was held at 40° C. The injection volume was 5 μL using pick up injection mode. Eluent A was 0.1% formic acid in water and eluent B was acetonitrile. The gradient was 20-100% B in 10 min, 100% B for 2 min, 100-20% B in 1 min and 20% B for 2 min. MS/MS analysis was performed by a Finnigan™ TSQ® Quantum (Thermo electron corporation) mass spectrometer in the SRM (Selected Reaction Monitoring) scan mode. As ion source a heated-electrospray ionization (HESI-II probe, Thermo scientific) was used. In the optimized conditions the ion spray voltage was 3500 V, vaporizer temperature 300° C., capillary temperature 380° C., sheath gas pressure 60 psi, ion sweep gas pressure 2 psi, aux gas 10 psi. The tube lens offset was 80 V and skimmer offset 0. Data were acquired in a mass range of m/z 130-350, and MS/MS acquisition of all compounds was performed in positive mode and fixed collision energy of 30 eV. Dwell time was 0.050 sec for all compounds.
# The software Quan Browser Thermo Xcalibur 3.1.66.10 was used for quantitative analysis. The standard peak area of the product ions was fitted by linear regression versus the known concentrations to generate a standard curve.
# Cultures of P. aeruginosa strains PAO1 and PA14 were incubated with different concentrations of the compound represented by Formula (2) for 24 h and extracted culture supernatants were used for LC-MS/MS analysis.
# 10 μL of a respective DMSO stock solution of compound represented by Formula (2) or 10 μL DMSO as vehicle control (0.33% final DMSO concentration) was added to 3 mL LB medium in 15 mL polypropylene centrifuge tubes with screw caps (VWR) to obtain final concentrations of 10, 50 and 100 μM. Afterwards 10 μL of a P. aeruginosa PAO1 or PA14 overnight culture was added. The caps of the sample tubes were slightly opened and fixed in a defined position by tape to ensure equal oxygen delivery to all samples. […] (180 rpm). Afterwards, the samples were centrifuged and the supernatants sterile filtered. The inhibition assay was performed in 3-4 biological replicates.
# 500 μL of sterile supernatant was transferred in 1.5 mL glass vials, 500 μL chloroform was added and vortexed thoroughly. Then, 200 μL of the organic layer was transferred in a clean 1.5 mL glass vial and the solvent evaporated by a gentle stream of nitrogen. The extract was stored at −80° C. until measurement. For analysis, 50 μL acetonitrile/water (1:1) was added to each sample.
# MeOH stock solutions of PQS, AQs, AQNOs and phenazines were prepared at 1 mg/mL in glass vials and stored at −80° C. A series of standard solutions was prepared freshly before LC-MS/MS analysis by serial dilutions of the stock solution of each analyte in acetonitrile/water (1:1).
# [2] = molecular target: T1, PqsD (Pseudomonas aeruginosa, UniProt P20582); experiment: Proteomic analysis of active site modification of PqsD after in situ inhibition; type: cell-based; conditions: PqsD inhibited in live E. coli cells, tryptic digest, LC-MS
# T1 construct: expressed in transfected cells; host or cells: E. coli BL21 containing pDEST/pqsD, induced with anhydrotetracyclin
# Method: In situ labelling was performed, and 2×SDS loading buffer was added directly to the resulting lysates. After SDS-PAGE and Coomassie staining, the protein band corresponding to PqsD was cut out of the gel. Then, tryptic digestion, sample preparation and LC-MS analysis were performed: Coomassie gel bands were washed in MilliQ for 15 sec, bands cut as close as possible and placed in Eppendorf tubes. For reduction and alkylation, a solution of 10 mM DTT in 50 mM NH4CO3 was added and incubated for 60 min at 56° C. The DTT solution was removed and a solution of 50 mM iodoacetamide in 50 mM NH4CO3 was added and incubated for 60 min at room temperature (rt). In a final washing step, the gel pieces were washed with 100 μL MilliQ water and 100 μL 50 mM NH4CO3 solution, then the solution was removed, and the gel dehydrated with acetonitrile/MilliQ water (3:2). The washing step was repeated until the gel pieces turned colorless. Next, the dehydration solution was removed, and acetonitrile was added for 10 sec before drying on air until complete dryness. The gel pieces were incubated for […] on ice in a freshly prepared cold buffer containing trypsin (10.0 ng/μL) and 50 mM NH4CO3. […] The combined washes and elutions were dried via SpeedVac and analyzed by an Orbitrap Fusion with EASY-nLC1200 instrument.
# [3] = test system: HHQ production of P. aeruginosa PAO1; experiment: 2-ABA feeding of P. aeruginosa PAO1, HHQ quantified by LC-MS/MS; type: cell-based, Pseudomonas aeruginosa; conditions: P. aeruginosa PAO1 grown with 50 μM compound, 2-ABA total 12 mM, 11 h at 37° C.
# Method: 10 μL of a 5 mM stock of the compound represented by Formula (2) in DMSO or 10 μL of DMSO as vehicle control (1% final DMSO concentration) was added in 1 mL LB medium in 15 mL polypropylene centrifugal tubes. Then, 5 μL P. aeruginosa PAO1 overnight culture was added and grown at 37° C. (190 rpm). Due to the instability of 2-ABA, it was added in six portions. After several time points (6 h, 6.5 h, 7 h, 7.5 h, 8 h and 10 h) the cultures treated with the compound represented by Formula (2) were supplemented with 20 μL 100 mM 2-ABA stock in basic solution (1% NH4OH) or 20 μL basic solution (1% NH4OH) as vehicle control. To investigate the effect of basic solution, the DMSO containing control samples were supplemented with same amounts of basic solution compared to treated samples. The total amount of 2-ABA added to each sample was 12 mM and the pH of the cultures after addition of the total volume of basic solution was under pH 8. After 11 h cultures were centrifuged, supernatants sterile filtered and HHQ extracted and quantified by LC-MS/MS according to the previously described protocol.
# [4] = test system: quinolone and phenazine production of P. aeruginosa PA14; experiment: Quinolone and phenazine inhibition in P. aeruginosa PA14 cultures, LC-MS/MS of supernatants; type: cell-based, Pseudomonas aeruginosa
# Method: as §1, §2
# The software Quan Browser Thermo Xcalibur 3.1.66.10 was used for quantitative analysis. The standard peak area of the product ions was fitted by linear regression versus the known concentrations to generate a standard curve. […]
# [5] = test system: P. aeruginosa PAO1; experiment: Minimum inhibitory concentration, P. aeruginosa PAO1; type: cell-based; conditions: Pseudomonas aeruginosa; P. aeruginosa PAO1, LB, 24 h at 37° C.
# Method: (§3) An overnight culture of P. aeruginosa PAO1 or PA14 was diluted 1:1000 in LB media. Afterwards, 99 μL of bacterial suspension and 1 μL of a corresponding stock solution of the compound represented by Formula (2) in DMSO was added to each well of a sterile, round-bottom 96-well plate. The compound represented by Formula (2) was applied in final concentrations of 1000, 500, 100, 50, 10, 5, 1, 0.5, 0.1, 0.05 μM in triplicates. The plate was incubated for 24 h at 37° C. (180 rpm).
# [6] = test system: P. aeruginosa PA01; experiment: Bacterial growth curve analysis, P. aeruginosa PAO1; type: cell-based, Pseudomonas aeruginosa; conditions: concentrations up to 100 μM, 27 h at 37° C.
# Method: (§4) In a sterile 15 mL polypropylene centrifuge tubes with screw caps (Roth) 20 μL of a respective DMSO Stock of the compounds represented by Formulas (2) and (5), or 20 μL DMSO as vehicle control was added for 1% final DMSO concentration. Then, 2 mL of LB medium and 6 μL of an overnight culture of P. aeruginosa PA01 or PA14 was added per sample. The samples were incubated for 27 h at 37° C. (190 rpm). At indicated incubation times 50 μL LB medium and 50 μL of culture were transferred in a cuvette, mixed and the adsorption measured at 600 nm.
# [7] = test system: P. aeruginosa PA14; experiment: Minimum inhibitory concentration, P. aeruginosa PA14; type: cell-based; conditions: Pseudomonas aeruginosa; P. aeruginosa PA14, LB, 24 h at 37° C.
# Method: as §3
# [8] = test system: P. aeruginosa PA14; experiment: Bacterial growth curve analysis, P. aeruginosa PA14; type: cell-based, Pseudomonas aeruginosa; conditions: concentrations up to 100 μM, 27 h at 37° C.
# Method: as §4
# T1 sequence (P20582 whole entry): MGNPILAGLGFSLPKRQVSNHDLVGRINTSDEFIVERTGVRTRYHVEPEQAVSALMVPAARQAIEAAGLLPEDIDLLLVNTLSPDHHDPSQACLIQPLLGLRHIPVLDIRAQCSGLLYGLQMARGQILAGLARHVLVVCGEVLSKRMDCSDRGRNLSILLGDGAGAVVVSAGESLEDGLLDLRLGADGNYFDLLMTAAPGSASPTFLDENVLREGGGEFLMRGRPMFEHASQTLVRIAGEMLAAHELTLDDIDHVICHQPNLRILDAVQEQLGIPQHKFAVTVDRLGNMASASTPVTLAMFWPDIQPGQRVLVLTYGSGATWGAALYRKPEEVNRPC
Compound,"production of all major quorum sensing signals, PQS and the chain length congeners of HHQ ([1]; P. aeruginosa PAO1, between 50 μM and 100 μM, 24 h)","intensity of quinolones and phenazines (LC-MS/MS chromatograms) ([1]; P. aeruginosa PAO1, increasing concentrations 10, 50, 100 μM, 24 h)","IC50 ([1]; Pseudomonas aeruginosa, PAO1, 24 h, read-out: average IC50 for production of all major quorum sensing signals, PQS and the chain length congeners of HHQ) [µM]","production of quinolone N-oxide congeners incl. HQNO, NQNO and trans-Δ1-NQNO ([1]; dose response manner, 10, 50, 100 μM, strain not given, 24 h)","phenazine production (1-OH-PHZ, PHZ-CA, pyocyanin) ([1]; strongest for 1-OH-PHZ and weakest for pyocyanin, strain not given, 24 h)",site of covalent binding in PqsD (six cysteines in total) [2],HHQ production after external addition of 2-ABA to inhibited culture [3],"production of all major quorum sensing signals, PQS and the chain length congeners of HHQ ([4]; compared with PAO1 (complete inhibition between 50 μM and 100 μM), 24 h)","intensity of quinolones and phenazines (LC-MS/MS chromatograms) ([4]; increasing concentrations 10, 50, 100 μM, 24 h)",MIC [5] [µM],growth (OD 600 nm growth curve) [6],MIC [7] [µM],growth (OD 600 nm growth curve) [8],"inhibition of quinolone production ([1]; P. aeruginosa PAO1, 100 μM, 27 h at 37° C. (FIG. 20a))","inhibition of quinolone production ([4]; 100 μM, 27 h at 37° C. (FIG. 20b))"
"Nc1ccccc1C(=O)CCl [Formula (2), 2′-amino-1-chloro-acetophenone]",completely inhibited,considerably decreased,< 10,inhibited,down-regulation of phenazines,only bound to the active site cysteine (Cys112),partially restored,slightly lesser degree,considerably decreased,> 1000,largely unaffected,> 1000,largely unaffected,,
O=C(CCl)c1cccc2cc[nH]c12 [Formula (5)],,,,,,,,,,,largely unaffected,,largely unaffected,observed,observed
